Reference: publication PMC12215950 (Chemical Science, 2025)

Biological target: T1, mitochondrial branched-chain aminotransferase (mBCAT2) (Mus musculus, UniProt O35855)
T1 sequence (O35855 28-393): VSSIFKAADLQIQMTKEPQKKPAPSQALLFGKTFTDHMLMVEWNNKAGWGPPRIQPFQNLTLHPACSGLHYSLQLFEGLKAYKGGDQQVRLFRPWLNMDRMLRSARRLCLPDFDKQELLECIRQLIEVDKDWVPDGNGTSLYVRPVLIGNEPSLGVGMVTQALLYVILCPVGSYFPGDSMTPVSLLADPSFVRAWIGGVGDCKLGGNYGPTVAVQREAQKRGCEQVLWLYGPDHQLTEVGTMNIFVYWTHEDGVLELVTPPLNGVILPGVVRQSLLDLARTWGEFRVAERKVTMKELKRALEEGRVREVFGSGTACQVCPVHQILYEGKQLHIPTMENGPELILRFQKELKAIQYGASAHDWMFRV
Assay: LC-MS transamination assay with Michaelis–Menten kinetics
Assay type: biochemical

C=C(CC(=O)O)C(=O)O [ITA, itaconate]
Ki: 15.3 mM
